Test results from ChEMBL document CHEMBL6103589, “Synthesis and evaluation of novel ebselen derivatives as urease inhibitors for combating Helicobacter pylori infections” (Eur J Med Chem, 2025).
Converted amounts (≈) assume the structure as drawn. The source made the active and inactive calls. No cut-off for these calls is given here.

Assays:
Helicobacter pylori [1] = assay: (§1) Protection against Helicobacter pylori ATCC 43504 infected (MOI 300:1) in human GES1 cell injury model assessed as necrotic cells at 50 uM pre-treated for 2 hrs followed by bacterial infection measured after 6 hrs by Annexin/V-FITC staining based flow cytometry analysis (reference value: 6.05%); format: functional; conditions: time 8 hrs
Helicobacter pylori [2] = assay: as §1, with “100:1)” for “300:1)”, “late apoptotic” for “necrotic”, “4.16%)” for “6.05%)”; format: functional; conditions: time 8 hrs
Helicobacter pylori [3] = assay: as §1, with “late apoptotic” for “necrotic”, “11.95%)” for “6.05%)”; format: functional; conditions: time 8 hrs
Helicobacter pylori [4] = assay: In vivo protection against Helicobacter pylori ATCC 43504 infected in BALB/c mouse gastric mucosa model assessed as effect on infiltration at high dose administered once a day for 2 weeks by HE staining based analysis; format: functional, organism-based
[5] = molecular target: Urease subunit alpha/Urease subunit beta (Helicobacter pylori (strain ATCC 700392 / 26695) (Campylobacterpylori), UniProt P69996); assay: Inhibition of Helicobacter pylori ATCC 43504 urease preincubated for 75 mins followed by urea addition and measured after 30 mins by ELISA; format: protein-complex assay
Urease subunit alpha/Urease subunit beta, sequence (P69996 whole entry): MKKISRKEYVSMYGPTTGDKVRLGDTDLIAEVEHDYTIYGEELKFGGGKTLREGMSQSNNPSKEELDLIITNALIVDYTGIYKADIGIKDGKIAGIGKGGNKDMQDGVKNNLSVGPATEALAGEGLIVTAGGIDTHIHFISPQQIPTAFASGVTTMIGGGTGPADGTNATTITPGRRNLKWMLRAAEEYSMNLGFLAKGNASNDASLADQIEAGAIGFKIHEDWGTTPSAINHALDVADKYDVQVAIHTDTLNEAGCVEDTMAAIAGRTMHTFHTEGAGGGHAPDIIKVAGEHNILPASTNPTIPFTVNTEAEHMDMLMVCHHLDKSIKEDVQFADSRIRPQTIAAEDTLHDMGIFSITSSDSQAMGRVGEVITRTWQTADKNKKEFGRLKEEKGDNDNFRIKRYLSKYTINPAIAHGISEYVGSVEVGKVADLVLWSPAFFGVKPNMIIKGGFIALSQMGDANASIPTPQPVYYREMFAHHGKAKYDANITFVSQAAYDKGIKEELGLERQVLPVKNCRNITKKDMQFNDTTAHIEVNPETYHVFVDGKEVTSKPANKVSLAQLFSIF
Urease subunit alpha/Urease subunit beta, sequence (P14916 whole entry, further chain): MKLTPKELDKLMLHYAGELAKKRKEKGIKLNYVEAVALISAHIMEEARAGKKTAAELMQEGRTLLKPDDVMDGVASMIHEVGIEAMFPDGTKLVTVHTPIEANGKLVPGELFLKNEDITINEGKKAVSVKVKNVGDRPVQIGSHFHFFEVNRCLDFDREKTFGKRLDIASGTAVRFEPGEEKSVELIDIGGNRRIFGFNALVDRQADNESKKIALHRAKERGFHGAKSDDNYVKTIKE

[6] = Acute toxicity in BALB/c mouse assessed as change in stool color at 1 g/Kg, po single dose administered for 7 days; format: organism-based; conditions: in vivo, 1000 mg/kg, 168 h, time 7 day
Helicobacter pylori [7] = assay: In vivo protection against Helicobacter pylori ATCC 43504 infected in BALB/c mouse gastric mucosa model assessed as appearance of intact tissue structure at low dose administered once a day for 2 weeks by HE staining based analysis; format: functional, organism-based
Helicobacter pylori [8] = assay: (§2) Protection against Helicobacter pylori ATCC 43504 infected (MOI 400:1) in human GES1 cell injury model assessed as necrotic cells at 50 uM pre-treated for 2 hrs followed by bacterial infection measured after 6 hrs by Annexin/V-FITC staining based flow cytometry analysis (reference value: 6.36%); format: functional; conditions: time 8 hrs
Helicobacter pylori [9] = assay: as §1, with “100:1)” for “300:1)”, “early apoptotic” for “necrotic”, “24.66 %)” for “6.05%)”; format: functional; conditions: time 8 hrs
Helicobacter pylori [10] = assay: In vivo protection against Helicobacter pylori ATCC 43504 infected in BALB/c mouse gastric mucosa model assessed as effect on hyperplasia at low dose administered once a day for 2 weeks by HE staining based analysis; format: functional, organism-based
[11] = Acute toxicity in BALB/c mouse assessed as pathological abnormality in lungs at 1 g/Kg, po single dose administered for 7 days by HE staining based analysis; format: organism-based; conditions: in vivo, 1000 mg/kg, 168 h, time 7 day
Helicobacter pylori [12] = assay: (§3) Protection against Helicobacter pylori ATCC 43504 infected (MOI 50:1) in human GES1 cell injury model assessed as viable cells at 50 uM pre-treated for 2 hrs followed by bacterial infection measured after 6 hrs by Annexin/V-FITC staining based flow cytometry analysis (reference value: 81.14%); format: functional; conditions: time 8 hrs
Helicobacter pylori [13] = assay: Antibacterial activity against Helicobacter pylori ATCC 43504 incubated for 24 hrs by broth dilution method; format: functional; conditions: dose 1-64 […]
Helicobacter pylori [14] = assay: as §1, with “200:1)” for “300:1)”, “early apoptotic” for “necrotic”, “31.93 %)” for “6.05%)”; format: functional; conditions: time 8 hrs
Helicobacter pylori [15] = assay: as §2, with “reduction in cell apoptosis rate” for “necrotic cells”, “56.03%)” for “6.36%)”; format: functional; parameters: scale not given: the % may be the effect or the level left; conditions: time 8 hrs
Helicobacter pylori [16] = assay: (§4) Protection against Helicobacter pylori ATCC 43504 infected (MOI 200:1) in human GES1 cell injury model assessed as viable cells at 25 uM pre-treated for 2 hrs followed by bacterial infection measured after 6 hrs by Annexin/V-FITC staining based flow cytometry analysis (reference value: 57.87%); format: functional; conditions: time 8 hrs
GES1 [17] = assay: Induction of DNA damage in human GES1 cells infected (25 to 400:1 MOI) with Helicobacter pylori ATCC 43504 assessed as decrease in gammaH2AX levels at 50 uM by SP8 laser confocal microscopic analysis; format: functional, cell-based; conditions: time 20.0 min
Helicobacter pylori [18] = assay: In vivo protection against Helicobacter pylori ATCC 43504 infected in BALB/c mouse gastric mucosa model assessed as effect on inflammatory cell infiltration at 25 mg/kg administered once a day for 2 weeks by HE staining based analysis; format: functional, organism-based
Helicobacter pylori [19] = assay: Protection against Helicobacter pylori ATCC 43504 infected (MOI 200:1) in human GES1 cell injury model assessed as viable cells at 50 uM pre-treated for 2 hrs followed by bacterial infection measured after 6 hrs by Annexin/V-FITC staining based flow cytometry analysis (reference value: 57.87%); format: functional; conditions: time 8 hrs
Helicobacter pylori [20] = assay: Protection against Helicobacter pylori ATCC 43504 infected (MOI 400:1) in human GES1 cell injury model assessed as necrotic cells at 25 uM pre-treated for 2 hrs followed by bacterial infection measured after 6 hrs by Annexin/V-FITC staining based flow cytometry analysis (reference value: 6.36%); format: functional; conditions: time 8 hrs
GES1 [21] = assay: Induction of ROS generation in human GES1 cells infected (25 to 400:1 MOI) with Helicobacter pylori ATCC 43504 assessed as increase in fluorescence intensity at 25 to 50 uM by DCFH-DA based Immunofluorescence analysis; format: functional, cell-based; conditions: dose 25-50 µM
Helicobacter pylori [22] = assay: as §3, with “early apoptotic” for “viable”, “13.16 %)” for “81.14%)”; format: functional; conditions: time 8 hrs
[23] = Acute toxicity in BALB/c mouse assessed as change in daily behaviour at 1 g/Kg, po single dose administered for 7 days; format: organism-based; conditions: in vivo, 1000 mg/kg, 168 h, time 7 day
[24] = Acute toxicity in BALB/c mouse assessed as pathological abnormality in liver at 1 g/Kg, po single dose administered for 7 days by HE staining based analysis; format: organism-based; conditions: in vivo, 1000 mg/kg, 168 h, time 7 day
Helicobacter pylori [25] = assay: In vivo protection against Helicobacter pylori ATCC 43504 infected in BALB/c mouse gastric mucosa model assessed as reduction in hyperplasia at 25 mg/kg administered once a day for 2 weeks by HE staining based analysis; format: functional, organism-based
Helicobacter pylori [26] = assay: as §4, with “100:1)” for “200:1)”, “late apoptotic” for “viable”, “4.16%)” for “57.87%)”; format: functional; conditions: time 8 hrs

Which Activity (Helicobacter pylori [1]) does the source give for `O=C(Oc1n[se]c2ccccc12)c1cccc(F)c1` here?
The Activity was 2.01%.

And the Activity (Helicobacter pylori [2])?
The Activity was 0.23%.

And the Activity (Helicobacter pylori [3])?
The Activity was 2.53%.

What about the Activity (Helicobacter pylori [4]) of the same compound?
Its Activity is “Active”.

What about the IC50 [5] of the same compound?
Its IC50 is 140 nM.

And the Activity [6]?
The Activity was “Non-toxic”.

And the Activity (Helicobacter pylori [7])?
The Activity was “Active”.

What about the Activity (Helicobacter pylori [8]) of the same compound?
Its Activity is 2.26%.

And the Activity (Helicobacter pylori [9])?
The Activity was 2.79%.

And the Activity (Helicobacter pylori [10])?
Its Activity is “inactive”.

What about the Activity [11] of the same compound?
Its Activity is “Non-toxic”.

What about the Activity (Helicobacter pylori [12]) of the same compound?
Its Activity is 97.06%.

What about the Activity (Helicobacter pylori [13]) of the same compound?
Its Activity is “Dose-dependent-effect”.

What about the MIC (Helicobacter pylori [13]) of the same compound?
Its MIC is 8 µg/mL (≈ 25 µM).

What about the Activity (Helicobacter pylori [14]) of the same compound?
The Activity was 4.38%.

What about the Activity (Helicobacter pylori [15]) of the same compound?
Its Activity is 47.7%.

What about the Activity (Helicobacter pylori [16]) of the same compound?
The Activity was 87.8%.

What about the Activity (GES1 [17]) of the same compound?
Its Activity is “Active”.

What about the Activity (Helicobacter pylori [18]) of the same compound?
The Activity was “Active”.

And the Activity (Helicobacter pylori [19])?
The Activity was 94.61%.

What about the Activity (Helicobacter pylori [20]) of the same compound?
The Activity was 0.32%.

What about the Activity (GES1 [21]) of the same compound?
The Activity was “Active”.

And the Activity (Helicobacter pylori [22])?
Its Activity is 2.91%.

And the Activity [23]?
Its Activity is “Non-toxic”.

What about the Activity [24] of the same compound?
The Activity was “Non-toxic”.

What about the Activity (Helicobacter pylori [25]) of the same compound?
Its Activity is “Active”.

And the Activity (Helicobacter pylori [26])?
The Activity was 0.17%.
